The results in this text go back to paper PMC8745314, “Novel Tetrazole-Based Antimicrobial Agents Targeting Clinical Bacteria Strains: Exploring the Inhibition of Staphylococcus aureus DNA Topoisomerase IV and Gyrase” (International Journal of Molecular Sciences, 2021).

What is called IC50 is the concentration that inhibits the measured activity by half.

Converted amounts (≈) assume the structure as drawn.

The target in assay [1] is S. aureus topoisomerase IV (Staphylococcus aureus, UniProt P0C1S7+P0C1U9). In words: Topoisomerase IV decatenation assay. Type of assay: biochemical. The following applies: decatenation of kinetoplast DNA, read-out: IC50 ± S.E.M. for Topoisomerase IV (converted). Here is the method:
Description related to conducted biological studies including cell culture, suitable conditions, and methodology was presented in our previous paper.
Figure 1 The effect of tested compounds on S. aureus topoisomerase IV activity. Decreasing amounts of 1, 2, or 3 were incubated with 200 ng kinetoplast DNA and run-on agarose gel. Lane: 1–5: compound 3 at concentrations 64, 32, 8, 2, 0.5 μg/mL, respectively. Lane: 6–10: compound 2 at concentrations 64, 32, 8, 2, 0.5 μg/mL, respectively. Lane: 11–15: compound 1 at concentrations 64, 32, 8, 2, 0.5 μg/mL, respectively.

The next assay has as its system S. aureus ATCC 29213. Briefly: MIC broth microdilution, standard strain. Type of assay: cell-based. The settings on record: Staphylococcus aureus, ATCC29213; S. aureus ATCC 29213, standard strain, 19 h at 35 °C; read-out: minimal inhibitory concentration (MIC). How it is done: (§1) All synthesized compounds were tested in vitro against a set of bacteria, including representative standard Gram-positive and Gram-negative rods. Compounds were screened for their minimal inhibitory concentrations (MICs). […] The antimicrobial assays were conducted using reference strains of bacteria derived from international microbe collections: American Type Culture Collection (ATCC) and National Collection of Type Culture (NCTC). The following standard strains of bacteria were used: Gram-positive-Staphylococcus aureus NCTC 4163, Staphylococcus aureus ATCC 25923, Staphylococcus aureus ATCC 6538, Staphylococcus aureus ATCC 29213, Staphylococcus epidermidis ATCC 12228, Staphylococcus epidermidis ATCC 35984, Gram-negative: Escherichia coli ATCC 25922, Pseudomonas aeruginosa ATCC 15442. Clinical strains of bacteria used in this study: Gram-positive: Staphylococcus epidermidis 5253, Staphylococcus epidermidis 4243, Staphylococcus aureus […], Staphylococcus aureus […] and Gram-negative: Escherichia coli 520, Escherichia coli 600, Klebsiella pneumoniae 510 and Pseudomonas aeruginosa 659 were obtained from the collection of the Department of Pharmaceutical Microbiology, Medical University of Warsaw, Poland and they were isolated from different biological materials taken from the patients hospitalized in the Warsaw Medical University hospitals. […] MIC was determined by the two-fold serial broth microdilution method in 96-well microtitration plates using Mueller-Hinton II broth medium (Becton Dickinson, Franklin Lakes, NJ, USA). The final inoculum of all studied bacteria was 10^6 CFU/mL (colony forming unit per milliliter). The stock solution of tested compounds was prepared in dimethyl sulfoxide (DMSO) and diluted to a maximum of 1% of solvent content with a sterile medium.
For orientation: Broth dilution looks for growth in wells or tubes with falling amounts of substance.

The next assay has as its system S. aureus ATCC 6538. Briefly: MIC broth microdilution, standard strain. The settings on record: Staphylococcus aureus, ATCC6538; S. aureus ATCC 6538, standard strain, 19 h at 35 °C; read-out: minimal inhibitory concentration (MIC). Type of assay: cell-based. Here is the method:
as §1

The test system of assay [2] is S. epidermidis ATCC 12228. Briefly: MIC broth microdilution, standard strain. The settings on record: Staphylococcus epidermidis, ATCC12228; S. epidermidis ATCC 12228, standard strain, 19 h at 35 °C; read-out: minimal inhibitory concentration (MIC). In kind it is cell-based. Here is the method:
as §1

Assay [3] has as its system S. epidermidis ATCC 35984. In words: MIC broth microdilution, standard strain. Type of assay: cell-based. The following applies: Staphylococcus epidermidis, ATCC35984; S. epidermidis ATCC 35984, standard strain, 19 h at 35 °C; read-out: minimal inhibitory concentration (MIC). How it is done:
as §1

Another assay concerns E. coli ATCC 25922. Briefly: MIC broth microdilution, standard strain. Type of assay: cell-based. The following applies: Escherichia coli, ATCC25922; E. coli ATCC 25922, standard strain, 19 h at 35 °C; read-out: minimal inhibitory concentration (MIC). How it is done:
(§2) All synthesized compounds were tested in vitro against a set of bacteria, including representative standard Gram-positive and Gram-negative rods. Compounds were screened for their minimal inhibitory concentrations (MICs). […] These three compounds were also found to be good inhibitors of the growth of Gram-negative rods: […] The antimicrobial assays were conducted using reference strains of bacteria derived from international microbe collections: American Type Culture Collection (ATCC) and National Collection of Type Culture (NCTC). The following standard strains of bacteria were used: Gram-positive-Staphylococcus aureus NCTC 4163, Staphylococcus aureus ATCC 25923, Staphylococcus aureus ATCC 6538, Staphylococcus aureus ATCC 29213, Staphylococcus epidermidis ATCC 12228, Staphylococcus epidermidis ATCC 35984, Gram-negative: Escherichia coli ATCC 25922, Pseudomonas aeruginosa ATCC 15442. Clinical strains of bacteria used in this study: Gram-positive: Staphylococcus epidermidis 5253, Staphylococcus epidermidis 4243, Staphylococcus aureus […], Staphylococcus aureus […] and Gram-negative: Escherichia coli 520, Escherichia coli 600, Klebsiella pneumoniae 510 and Pseudomonas aeruginosa 659 were obtained from the collection of the Department of Pharmaceutical Microbiology, Medical University of Warsaw, Poland and they were isolated from different biological materials taken from the patients hospitalized in the Warsaw Medical University hospitals. Antimicrobial activity was examined by the minimal inhibitory concentration (MIC) method under standard procedures provided by CLSI with some modifications. MIC was determined by the two-fold serial broth microdilution method in 96-well microtitration plates using Mueller-Hinton II broth medium (Becton Dickinson, Franklin Lakes, NJ, USA). The final inoculum of all studied bacteria was 10^6 CFU/mL (colony forming unit per milliliter). The stock solution of tested compounds was prepared in dimethyl sulfoxide (DMSO) and diluted to a maximum of 1% of solvent content with a sterile medium.

Another assay deals with P. aeruginosa ATCC 15442. Briefly: MIC broth microdilution, standard strain. In kind it is cell-based. The following applies: Pseudomonas aeruginosa, ATCC15442; P. aeruginosa ATCC 15442, standard strain, 19 h at 35 °C; read-out: minimal inhibitory concentration (MIC). Here is the method:
as §2

For the next assay, the system named is S. aureus ATCC 25923. In words: MIC broth microdilution, standard strain. Type of assay: cell-based. The settings on record: Staphylococcus aureus, ATCC25923; S. aureus ATCC 25923, standard strain, 19 h at 35 °C; read-out: minimal inhibitory concentration (MIC). Here is the method:
as §2

The next assay relates to S. aureus NCTC 4163. In words: MIC broth microdilution, standard strain. In kind it is cell-based. The settings on record: Staphylococcus aureus, NCTC4163; S. aureus NCTC 4163, standard strain, 19 h at 35 °C; read-out: minimal inhibitory concentration (MIC). Here is the method: as §2

Take `COc1c(N2C[C@@H]3CCCN[C@@H]3C2)c(F)cc2c(=O)c(C(=O)O)cn(C3CC3)c12` [Moxifloxacin, reference compound]: in [1], the IC50 is 2240 nM.
For `CC(C)C12C=CC(C)(CC1)C1C(=O)N(Nc3nnnn3-c3ccccc3)C(=O)C12` (centres unmarked) [Compound 11, 4-Isopropyl-7-methyl-2-((1-phenyl-1H-tetrazol-5-yl)amino)-3a,4,7,7a-tetrahydro-1H-4,7-ethanoisoindole-1,3(2H)-dione], the MIC with S. aureus ATCC 29213 was 128 µg/mL (≈ 326 µM); in the assay with S. aureus ATCC 6538, 128 µg/mL (≈ 326 µM); in assay [2], 256 µg/mL (≈ 652 µM); in assay [3] it was 128 µg/mL (≈ 326 µM); in the assay on E. coli ATCC 25922, above 256 µg/mL; with P. aeruginosa ATCC 15442 it was above 256 µg/mL. In addition, the MIC in the assay with S. aureus ATCC 25923 and with S. aureus NCTC 4163 was 128 µg/mL (≈ 326 µM) each time.
In the case of `CC1=C(C)C2(C)CC1(C)C1C(=O)N(Nc3nnnn3-c3ccc(C)cc3)C(=O)C12` (centres unmarked) [Compound 5, 4,5,6,7-Tetramethyl-2-((1-(p-tolyl)-1H-tetrazol-5-yl)amino)-3a,4,7,7a-tetrahydro-1H-4,7-methanoisoindole-1,3(2H)-dione], the MIC (with S. aureus ATCC 29213; in the assay with S. aureus ATCC 6538; in assay [2]; in assay [3]; in the assay on E. coli ATCC 25922; in the assay on P. aeruginosa ATCC 15442) was above 256 µg/mL in each case. Moreover, the MIC in the assay with S. aureus ATCC 25923 and with S. aureus NCTC 4163 was above 256 µg/mL each time.
Regarding `CC(C)C12C=CC(C)(CC1)C1C(=O)N(Nc3nnnn3-c3ccccc3Cl)C(=O)C12` (centres unmarked) [Compound 7, 2-((1-(2-Chlorophenyl)-1H-tetrazol-5-yl)amino)-4-isopropyl-7-methyl-3a,4,7,7a-tetrahydro-1H-4,7-ethanoisoindole-1,3(2H)-dione], the MIC in the assay on S. aureus ATCC 29213 is 64 µg/mL (≈ 150 µM); in the assay with S. aureus ATCC 6538, 32 µg/mL (≈ 75 µM); in [2], 128 µg/mL (≈ 300 µM); in assay [3] it was 32 µg/mL (≈ 75 µM); in the assay with E. coli ATCC 25922 it was 128 µg/mL (≈ 300 µM); in the assay with P. aeruginosa ATCC 15442, above 256 µg/mL. Further, the MIC with S. aureus ATCC 25923 and in the assay on S. aureus NCTC 4163 was 32 µg/mL (≈ 75 µM) throughout.
As for `O=C(O)c1cn(C2CC2)c2cc(N3CCNCC3)c(F)cc2c1=O` [Ciprofloxacin, reference compound], the MIC with E. coli ATCC 25922 turned out to be 0.015 µg/mL (≈ 0.0453 µM); in the assay with P. aeruginosa ATCC 15442, 0.125 µg/mL (≈ 0.377 µM); in the assay on S. aureus ATCC 25923, 0.5 µg/mL (≈ 1.51 µM); with S. aureus NCTC 4163, 0.125 µg/mL (≈ 0.377 µM).
